Results as given in PubChem BioAssay (NCI).
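Protocol summary: plate cells (96-well), add compound at 5 concentrations, incubate 48 h, interpolate endpoints linearly. Here, GI50 denotes the concentration required for 50% inhibition of growth. TGI: concentration producing complete growth inhibition.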

Legend:
Experiment in all cases: NCI-60 cell line screen, 48 h
MOLT-4 leukemia = test system: MOLT-4 leukemia
HOP-92 NSCLC = test system: HOP-92 NSCLC
K-562 leukemia = test system: K-562 leukemia
A498 renal = test system: A498 renal
HL-60(TB) leukemia = test system: HL-60(TB) leukemia
HCT-15 colon = test system: HCT-15 colon
SK-MEL-2 melanoma = test system: SK-MEL-2 melanoma
CCRF-CEM leukemia = test system: CCRF-CEM leukemia
MCF7 breast = test system: MCF7 breast
BT-549 breast = test system: BT-549 breast

Row | Structure (SMILES) | TGI (MOLT-4 leukemia) [µM] | TGI (HOP-92 NSCLC) [µM] | TGI (K-562 leukemia) [µM] | TGI (A498 renal) [µM] | TGI (HL-60(TB) leukemia) [µM] | TGI (HCT-15 colon) [µM] | TGI (SK-MEL-2 melanoma) [µM] | TGI (CCRF-CEM leukemia) [µM] | GI50 (MOLT-4 leukemia) [µM] | GI50 (HOP-92 NSCLC) [µM] | GI50 (K-562 leukemia) [µM] | GI50 (A498 renal) [µM] | GI50 (MCF7 breast) [µM] | TGI (MCF7 breast) [µM] | GI50 (HCT-15 colon) [µM] | GI50 (SK-MEL-2 melanoma) [µM] | GI50 (CCRF-CEM leukemia) [µM] | GI50 (BT-549 breast) [µM] | TGI (BT-549 breast) [µM] | GI50 (HL-60(TB) leukemia) [µM]
1 | CC(C)C(=O)Nc1nc2c(ncn2C2OC(CO)C(O)C2O)c(=O)[nH]1 (configuration not stated) | > 100 | > 100 | > 100 | > 100 | > 100 | > 100 | > 100 | > 100 |  |  |  |  |  |  |  |  |  |  |  | 
2 | CN[C@@H](C)[C@@H](NC)c1ccccc1 | > 100 | > 100 | > 100 | > 100 |  | > 100 |  | > 100 |  |  |  |  |  |  |  |  |  |  |  | 
3 | CCCO/S(=N\S(=O)(=O)c1ccccc1)c1ccccc1[N+](=O)[O-] (configuration not stated) | > 100 |  | > 100 |  |  | > 100 | > 100 | > 100 |  |  |  |  |  |  |  |  |  |  |  | 
4 | O=[N+]([O-])c1ccc(N2N=C(c3ccc(NCc4nc5ccccc5[nH]4)cc3)CC2c2ccco2)cc1 (configuration not stated) | 31.3 | > 100 | > 100 | > 100 | 48.9 | 84.9 |  | > 100 |  |  |  |  |  |  |  |  |  |  |  | 
5 | O=S(=O)(c1ccccc1)C1CN2OC1(S(=O)(=O)c1ccccc1)CC2c1ccc(Br)cc1 (configuration not stated) | > 100 | > 100 | > 100 | > 100 | > 100 | > 100 | > 100 | > 100 |  |  |  |  |  |  |  |  |  |  |  | 
6 | Cc1cc(C)c(NC(=O)c2sc3nc4c(cc3c2N)CN(Cc2ccccc2)CC4)c(C)c1 | > 100 | 42.6 | > 100 | 7.71 |  | > 100 | > 100 | 59.7 | 4.15 | 0.877 | 0.903 | 1.31 | 1.61 | 32.2 | 2.12 | 5.59 | 3.16 | 4.05 | 57.6 | 
7 | COc1cc(C=O)c(-c2cc(OC)c(OC)cc2C=O)cc1OC | > 100 | > 100 | > 100 | > 100 | > 100 | > 100 | > 100 | > 100 |  |  |  |  |  |  |  |  |  |  |  | 
8 | O=C1NC(=O)C(c2cccc([N+](=O)[O-])c2)=C1Nc1cc(Cl)c(O)c(Cl)c1 | > 25 |  | > 25 | > 25 | > 25 | > 25 | > 25 |  | > 25 |  | > 25 | > 11.5 | > 25 | > 25 | > 25 | > 19.8 |  | > 16.2 | > 25 | > 25
9 | COc1cc(C(=O)N2CCN(c3ncccn3)CC2)c(N)cc1OCc1ccccc1 | > 100 | > 100 | > 100 | > 100 | > 100 | > 100 | > 100 | > 100 | 81.6 | > 100 | > 100 | 54.2 | > 100 | > 100 | > 100 | > 100 | > 100 |  |  | > 100
10 | COc1cc2c3c(n(CCCOC(=O)C(F)(F)F)c(=O)c2cc1OC)-c1cc2c(cc1C3=O)OCO2 |  | 33.4 | > 100 | 20.6 |  | > 100 | > 100 | > 100 |  | 0.122 | < 0.0289 | 0.375 |  | > 29.2 | 0.103 | 7.3 | < 0.01 | 0.202 | 68.6 | 
11 | COC1(OC)CC2C(=O)N(Cc3ccccc3)C1C=C2S(=O)(=O)c1ccccc1 (configuration not stated) | 50.3 | 54.1 | 63.2 | 45 | 36.7 |  |  | 44.9 |  |  |  |  |  |  |  |  |  |  |  | 
12 | CC(C)N(C(=O)C12C3C4C1(I)C1C2C3(I)C41C(=O)N(C(C)C)C(C)C)C(C)C (configuration not stated) | > 100 | > 100 | > 63.6 | > 100 | > 61.3 | > 59.8 | > 100 | > 61.2 |  |  |  |  |  |  |  |  |  |  |  | 
13 | Cc1cc(NS(=O)(=O)c2ccc(Nc3c4ccccc4nc4c(C(=O)N5CCN(CCO)CC5)ccc(Cl)c34)cc2)no1 | > 100 | > 100 | > 100 | > 100 | > 100 | > 100 | > 100 | 74 |  |  |  |  |  |  |  |  |  |  |  | 
14 | O=Cc1ccc2c(c1-c1c(C=O)ccc3c1OCO3)OCO2 | > 100 |  | > 100 | > 100 | > 100 | > 100 | > 100 | > 100 |  |  |  |  |  |  |  |  |  |  |  | 
15 | CCC1CCc2c(c(=O)oc3c2cc(OC)c2cccc(OC)c23)C1 (configuration not stated) | > 100 |  | > 100 | > 100 | 69.6 | > 100 | > 100 | > 100 |  |  |  |  |  |  |  |  |  |  |  | 
16 | O=C1NC(=NCCc2cccc(Cl)c2)S/C1=C\c1ccc2ncccc2c1 | > 25 | > 25 | > 25 | > 25 | > 25 | > 25 | > 25 | > 25 | > 25 | > 25 | 1.17 | > 25 |  |  | 1.08 | > 25 | > 25 | > 25 | > 25 | > 25
17 | Cc1c(/C=N/NC(=O)c2ccc(Cl)cc2)c(=O)n(-c2ccccc2)n1C | > 100 | > 100 | > 100 |  | > 100 | > 100 | > 100 | > 100 |  |  |  |  |  |  |  |  |  |  |  | 
18 | O=P1(c2ccccc2)CCCCC1 | > 100 |  | > 100 | > 100 | > 100 | > 100 | > 100 | > 100 |  |  |  |  |  |  |  |  |  |  |  | 
19 | COc1ccc(-n2c(C)cc(-c3ccccc3)c2C)cc1 |  |  | > 100 | 9 | 9.92 | 13.3 | 3.93 | 9.16 |  |  | 1.4 | 0.637 | 3.58 | > 100 | 1.95 | 1.7 | 2.16 | 2.63 | 9.98 | 2.88
20 | COc1ncc(-c2ccc3ncnc(Nc4cccc(Cl)c4)c3c2)cc1NS(=O)(=O)C1CC1 |  | > 100 | > 100 |  |  |  |  | > 100 |  | 0.394 | > 100 |  |  |  |  |  | > 100 |  |  | 
21 | COc1cc2c(OC)cc1CSCc1sc(C)c(c1Br)CSC2 | > 100 | > 100 | > 100 | > 100 | > 100 | > 100 | > 100 | > 100 |  |  |  |  |  |  |  |  |  |  |  | 
